Measured values published in ChEMBL document CHEMBL3885861, “Open TG-GATES”.

Organism: Rattus norvegicus
Test: Open TG-GATES - Regimen: Single
Format: toxicity, organism-based, Sprague-Dawley
Parameters: regimen Single, gender Male, age 6 weeks
Conditions: in vivo, po, 1000 mg/kg, route gavage, dose level High; for APTT / Bas / Eos / Fbg / Hb / Ht / Lym / MCH / MCHC / MCV / Mono / Neu / PT / Plat / RBC / Ret / WBC: tissue Blood; for KIDNEY_L / KIDNEY_R / KIDNEY_TOTAL: tissue Kidney; for LIVER: tissue Liver; for A/G / ALP / ALT / AST / BUN / CRE / Ca / Cl / DBIL / GLC / IP / K / LDH / Na / PL / RALB / TBIL / TC / TG / TP / gamma-GTP: tissue Plasma

CN/C(=N/CCSCc1nc[nH]c1C)NC#N [CIMETIDINE]
TERMINAL_BW (3 h): 215.2 g | APTT (3 h): 19.1 s | Bas (3 h): 0% | Eos (3 h): 1% | Fbg (3 h): 216.2 mg/dL | Hb (3 h): 12.3 g/dL | Ht (3 h): 36.7% | Lym (3 h): 76.4% | MCH (3 h): 21.2 pg | MCHC (3 h): 33.5% | MCV (3 h): 63.1 fL | Mono (3 h): 3% | Neu (3 h): 18.6% | PT (3 h): 13.1 s | Plat (3 h): 126.2 x10_4/uL | RBC (3 h): 582 x10_4/ul | Ret (3 h): 7.9% | WBC (3 h): 89.9 x10_2/uL | KIDNEY_L (3 h): 1 g | KIDNEY_R (3 h): 1 g | KIDNEY_TOTAL (3 h): 2 g | LIVER (3 h): 9.8 g | A/G (3 h): 1.7 | ALP (3 h): 1031 IU/L | ALT (3 h): 35.6 IU/L | AST (3 h): 67 IU/L | BUN (3 h): 8.6 mg/dL | CRE (3 h): 0.4 mg/dL | Ca (3 h): 10.6 mg/dL | Cl (3 h): 104.4 meq/L | DBIL (3 h): 0.068 mg/dL | GLC (3 h): 181.8 mg/dL | IP (3 h): 8.3 mg/dL | K (3 h): 4 meq/L | LDH (3 h): 175 IU/L | Na (3 h): 141.4 meq/L | PL (3 h): 150.2 mg/dL | RALB (3 h): 3.3 g/dL | TBIL (3 h): 0.1 mg/dL | TC (3 h): 77.6 mg/dL | TG (3 h): 46.6 mg/dL | TP (3 h): 5.3 g/dL | gamma-GTP (3 h): 1 IU/L | TERMINAL_BW (6 h): 211.9 g | APTT (6 h): 19 s | Bas (6 h): 0% | Eos (6 h): 0.8% | Fbg (6 h): 227.4 mg/dL | Hb (6 h): 13.2 g/dL | Ht (6 h): 38.2% | Lym (6 h): 78% | MCH (6 h): 21.7 pg | MCHC (6 h): 34.5% | MCV (6 h): 63 fL | Mono (6 h): 2.8% | Neu (6 h): 17.2% | PT (6 h): 13.5 s | Plat (6 h): 125.8 x10_4/uL | RBC (6 h): 607.4 x10_4/ul | Ret (6 h): 7.6% | WBC (6 h): 100.8 x10_2/uL | KIDNEY_L (6 h): 1 g | KIDNEY_R (6 h): 1 g | KIDNEY_TOTAL (6 h): 2 g | LIVER (6 h): 9.6 g | A/G (6 h): 1.5 | ALP (6 h): 955 IU/L | ALT (6 h): 34.2 IU/L | AST (6 h): 65.8 IU/L | BUN (6 h): 8.2 mg/dL | CRE (6 h): 0.4 mg/dL | Ca (6 h): 10.6 mg/dL | Cl (6 h): 103.6 meq/L | DBIL (6 h): 0.078 mg/dL | GLC (6 h): 200.8 mg/dL | IP (6 h): 9.8 mg/dL | K (6 h): 4 meq/L | LDH (6 h): 162.2 IU/L | Na (6 h): 142.4 meq/L | PL (6 h): 153.4 mg/dL | RALB (6 h): 3.4 g/dL | TBIL (6 h): 0.1 mg/dL | TC (6 h): 75.6 mg/dL | TG (6 h): 83.2 mg/dL | TP (6 h): 5.6 g/dL | gamma-GTP (6 h): 1.2 IU/L | TERMINAL_BW (9 h): 208.6 g | APTT (9 h): 18.7 s | Bas (9 h): 0% | Eos (9 h): 1% | Fbg (9 h): 229.2 mg/dL | Hb (9 h): 13.1 g/dL | Ht (9 h): 37.4% | Lym (9 h): 80% | MCH (9 h): 22.1 pg | MCHC (9 h): 35.1% | MCV (9 h): 63 fL | Mono (9 h): 2.4% | Neu (9 h): 15.6% | PT (9 h): 14.1 s | Plat (9 h): 120.4 x10_4/uL | RBC (9 h): 594.2 x10_4/ul | Ret (9 h): 7.9% | WBC (9 h): 94.9 x10_2/uL | KIDNEY_L (9 h): 0.9 g | KIDNEY_R (9 h): 0.9 g | KIDNEY_TOTAL (9 h): 1.9 g | LIVER (9 h): 8.9 g | A/G (9 h): 1.7 | ALP (9 h): 1031 IU/L | ALT (9 h): 32.8 IU/L | AST (9 h): 62.4 IU/L | BUN (9 h): 8.2 mg/dL | CRE (9 h): 0.4 mg/dL | Ca (9 h): 10.3 mg/dL | Cl (9 h): 103.6 meq/L | DBIL (9 h): 0.068 mg/dL | GLC (9 h): 193.6 mg/dL | IP (9 h): 9.7 mg/dL | K (9 h): 3.7 meq/L | LDH (9 h): 157 IU/L | Na (9 h): 142 meq/L | PL (9 h): 150.4 mg/dL | RALB (9 h): 3.5 g/dL | TBIL (9 h): 0.1 mg/dL | TC (9 h): 77.2 mg/dL | TG (9 h): 58.6 mg/dL | TP (9 h): 5.5 g/dL | gamma-GTP (9 h): 1.4 IU/L | TERMINAL_BW (24 h): 223 g | APTT (24 h): 19.3 s | Bas (24 h): 0% | Eos (24 h): 1% | Fbg (24 h): 212.4 mg/dL | Hb (24 h): 13.1 g/dL | Ht (24 h): 39% | Lym (24 h): 80.6% | MCH (24 h): 21.3 pg | MCHC (24 h): 33.6% | MCV (24 h): 63.4 fL | Mono (24 h): 2.4% | Neu (24 h): 14.8% | PT (24 h): 13 s | Plat (24 h): 122.4 x10_4/uL | RBC (24 h): 616 x10_4/ul | Ret (24 h): 6.8% | WBC (24 h): 101.7 x10_2/uL | KIDNEY_L (24 h): 1 g | KIDNEY_R (24 h): 1 g | KIDNEY_TOTAL (24 h): 2 g | LIVER (24 h): 10.6 g | A/G (24 h): 1.6 | ALP (24 h): 1054.4 IU/L | ALT (24 h): 34.2 IU/L | AST (24 h): 68.8 IU/L | BUN (24 h): 17.8 mg/dL | CRE (24 h): 0.4 mg/dL | Ca (24 h): 10.6 mg/dL | Cl (24 h): 102 meq/L | DBIL (24 h): 0.1 mg/dL | GLC (24 h): 206.8 mg/dL | IP (24 h): 7.7 mg/dL | K (24 h): 3.8 meq/L | LDH (24 h): 200 IU/L | Na (24 h): 140 meq/L | PL (24 h): 148 mg/dL | RALB (24 h): 3.3 g/dL | TBIL (24 h): 0.2 mg/dL | TC (24 h): 76.2 mg/dL | TG (24 h): 96.2 mg/dL | TP (24 h): 5.4 g/dL | gamma-GTP (24 h): 1.4 IU/L
